# Data taken from patent US20220281848A1, “PYRAZOLE-SUBSTITUTED PYRROLIDINONES AS HERBICIDES” (FMC Corporation, priority 2019, published 2022).
# Tested on: plants
# Assay: Test D pre-emergence, other plants of Tables D1 and D3
# Assay type: in vivo
# Details: preemergent, 20 DAA
# How it was run: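 Seeds treated with herbicide safener; sown in soil; glasshouse, 16 h light, 65% humidity. Sprayed day 1 (pre) or ~day 12 (post). Spray in 0.2% v/v adjuvant. Scored 0–100 damage: 20 DAA pre, 15 d post.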
compound,measurement,setting,value
CCn1nc([C@@H]2CN(C)C(=O)[C@H]2C(=O)Nc2cccc(F)c2F)c2cccc(F)c21 [Compound 14],"damage to plant (100=total damage to plant; 0=no damage to plant), ABUTH",rate 15,0
same,"damage to plant (100=total damage to plant; 0=no damage to plant), ABUTH",rate 30,0
same,"damage to plant (100=total damage to plant; 0=no damage to plant), ABUTH",rate 60,0
same,"damage to plant (100=total damage to plant; 0=no damage to plant), ABUTH",rate 130,0
same,"damage to plant (100=total damage to plant; 0=no damage to plant), ABUTH",rate 250,10
same,"damage to plant (100=total damage to plant; 0=no damage to plant), ABUTH",rate 500,20
same,"damage to plant (100=total damage to plant; 0=no damage to plant), AMARE",rate 15,0
same,"damage to plant (100=total damage to plant; 0=no damage to plant), AMARE",rate 30,0
same,"damage to plant (100=total damage to plant; 0=no damage to plant), AMARE",rate 60,0
same,"damage to plant (100=total damage to plant; 0=no damage to plant), AMARE",rate 130,0
same,"damage to plant (100=total damage to plant; 0=no damage to plant), AMARE",rate 250,0
same,"damage to plant (100=total damage to plant; 0=no damage to plant), AMARE",rate 500,0
same,"damage to plant (100=total damage to plant; 0=no damage to plant), BIDPI",rate 15,0
same,"damage to plant (100=total damage to plant; 0=no damage to plant), BIDPI",rate 30,0
same,"damage to plant (100=total damage to plant; 0=no damage to plant), BIDPI",rate 60,0
same,"damage to plant (100=total damage to plant; 0=no damage to plant), BIDPI",rate 130,0
same,"damage to plant (100=total damage to plant; 0=no damage to plant), BIDPI",rate 250,0
same,"damage to plant (100=total damage to plant; 0=no damage to plant), BIDPI",rate 500,0
same,"damage to plant (100=total damage to plant; 0=no damage to plant), BRAPL",rate 15,30
same,"damage to plant (100=total damage to plant; 0=no damage to plant), BRAPL",rate 30,40
same,"damage to plant (100=total damage to plant; 0=no damage to plant), BRAPL",rate 60,60
same,"damage to plant (100=total damage to plant; 0=no damage to plant), BRAPL",rate 130,90
same,"damage to plant (100=total damage to plant; 0=no damage to plant), BRAPL",rate 250,90
same,"damage to plant (100=total damage to plant; 0=no damage to plant), BRAPL",rate 500,90
same,"damage to plant (100=total damage to plant; 0=no damage to plant), CYPES",rate 15,0
same,"damage to plant (100=total damage to plant; 0=no damage to plant), CYPES",rate 30,0
same,"damage to plant (100=total damage to plant; 0=no damage to plant), CYPES",rate 60,0
same,"damage to plant (100=total damage to plant; 0=no damage to plant), CYPES",rate 130,0
same,"damage to plant (100=total damage to plant; 0=no damage to plant), CYPES",rate 250,0
same,"damage to plant (100=total damage to plant; 0=no damage to plant), CYPES",rate 500,0
same,"damage to plant (100=total damage to plant; 0=no damage to plant), DIGSA",rate 15,60
same,"damage to plant (100=total damage to plant; 0=no damage to plant), DIGSA",rate 30,80
same,"damage to plant (100=total damage to plant; 0=no damage to plant), DIGSA",rate 60,90
same,"damage to plant (100=total damage to plant; 0=no damage to plant), DIGSA",rate 130,90
same,"damage to plant (100=total damage to plant; 0=no damage to plant), DIGSA",rate 250,90
same,"damage to plant (100=total damage to plant; 0=no damage to plant), DIGSA",rate 500,90
same,"damage to plant (100=total damage to plant; 0=no damage to plant), ECHCG",rate 15,30
same,"damage to plant (100=total damage to plant; 0=no damage to plant), ECHCG",rate 30,50
same,"damage to plant (100=total damage to plant; 0=no damage to plant), ECHCG",rate 60,70
same,"damage to plant (100=total damage to plant; 0=no damage to plant), ECHCG",rate 130,90
same,"damage to plant (100=total damage to plant; 0=no damage to plant), ECHCG",rate 250,90
same,"damage to plant (100=total damage to plant; 0=no damage to plant), ECHCG",rate 500,90
same,"damage to plant (100=total damage to plant; 0=no damage to plant), ELEIN",rate 15,0
same,"damage to plant (100=total damage to plant; 0=no damage to plant), ELEIN",rate 30,0
same,"damage to plant (100=total damage to plant; 0=no damage to plant), ELEIN",rate 60,0
same,"damage to plant (100=total damage to plant; 0=no damage to plant), ELEIN",rate 130,0
same,"damage to plant (100=total damage to plant; 0=no damage to plant), ELEIN",rate 250,0
same,"damage to plant (100=total damage to plant; 0=no damage to plant), ELEIN",rate 500,0
same,"damage to plant (100=total damage to plant; 0=no damage to plant), EPHHL",rate 15,0
same,"damage to plant (100=total damage to plant; 0=no damage to plant), EPHHL",rate 30,0
same,"damage to plant (100=total damage to plant; 0=no damage to plant), EPHHL",rate 60,0
same,"damage to plant (100=total damage to plant; 0=no damage to plant), EPHHL",rate 130,0
same,"damage to plant (100=total damage to plant; 0=no damage to plant), EPHHL",rate 250,10
same,"damage to plant (100=total damage to plant; 0=no damage to plant), EPHHL",rate 500,20
same,"damage to plant (100=total damage to plant; 0=no damage to plant), GLXMA",rate 15,0
same,"damage to plant (100=total damage to plant; 0=no damage to plant), GLXMA",rate 30,0
same,"damage to plant (100=total damage to plant; 0=no damage to plant), GLXMA",rate 60,0
same,"damage to plant (100=total damage to plant; 0=no damage to plant), GLXMA",rate 130,0
same,"damage to plant (100=total damage to plant; 0=no damage to plant), GLXMA",rate 250,0
same,"damage to plant (100=total damage to plant; 0=no damage to plant), GLXMA",rate 500,0
same,"damage to plant (100=total damage to plant; 0=no damage to plant), IPOHE",rate 15,0
same,"damage to plant (100=total damage to plant; 0=no damage to plant), IPOHE",rate 30,0
same,"damage to plant (100=total damage to plant; 0=no damage to plant), IPOHE",rate 60,0
same,"damage to plant (100=total damage to plant; 0=no damage to plant), IPOHE",rate 130,0
same,"damage to plant (100=total damage to plant; 0=no damage to plant), IPOHE",rate 250,0
same,"damage to plant (100=total damage to plant; 0=no damage to plant), IPOHE",rate 500,0
same,"damage to plant (100=total damage to plant; 0=no damage to plant), ORYSA",rate 15,0
same,"damage to plant (100=total damage to plant; 0=no damage to plant), ORYSA",rate 30,0
same,"damage to plant (100=total damage to plant; 0=no damage to plant), ORYSA",rate 60,0
same,"damage to plant (100=total damage to plant; 0=no damage to plant), ORYSA",rate 130,0
same,"damage to plant (100=total damage to plant; 0=no damage to plant), ORYSA",rate 250,0
same,"damage to plant (100=total damage to plant; 0=no damage to plant), ORYSA",rate 500,0
same,"damage to plant (100=total damage to plant; 0=no damage to plant), PANMI",rate 15,0
same,"damage to plant (100=total damage to plant; 0=no damage to plant), PANMI",rate 30,0
same,"damage to plant (100=total damage to plant; 0=no damage to plant), PANMI",rate 60,0
same,"damage to plant (100=total damage to plant; 0=no damage to plant), PANMI",rate 130,0
same,"damage to plant (100=total damage to plant; 0=no damage to plant), PANMI",rate 250,30
same,"damage to plant (100=total damage to plant; 0=no damage to plant), PANMI",rate 500,80
same,"damage to plant (100=total damage to plant; 0=no damage to plant), SETFA",rate 15,30
same,"damage to plant (100=total damage to plant; 0=no damage to plant), SETFA",rate 30,70
same,"damage to plant (100=total damage to plant; 0=no damage to plant), SETFA",rate 60,80
same,"damage to plant (100=total damage to plant; 0=no damage to plant), SETFA",rate 130,80
same,"damage to plant (100=total damage to plant; 0=no damage to plant), SETFA",rate 250,90
same,"damage to plant (100=total damage to plant; 0=no damage to plant), SETFA",rate 500,90
same,"damage to plant (100=total damage to plant; 0=no damage to plant), SIDSP",rate 15,10
same,"damage to plant (100=total damage to plant; 0=no damage to plant), SIDSP",rate 30,10
same,"damage to plant (100=total damage to plant; 0=no damage to plant), SIDSP",rate 60,30
same,"damage to plant (100=total damage to plant; 0=no damage to plant), SIDSP",rate 130,30
same,"damage to plant (100=total damage to plant; 0=no damage to plant), SIDSP",rate 250,80
same,"damage to plant (100=total damage to plant; 0=no damage to plant), SIDSP",rate 500,80
same,"damage to plant (100=total damage to plant; 0=no damage to plant), SORVU",rate 15,0
same,"damage to plant (100=total damage to plant; 0=no damage to plant), SORVU",rate 30,0
same,"damage to plant (100=total damage to plant; 0=no damage to plant), SORVU",rate 60,0
